Data as given in paper PMC2074394 (British Journal of Cancer, 1996).
Entries after “also recorded” stand apart in the source; their conditions may differ. Like-named read-outs stand apart in the source and are kept apart here.

Experiments:
[1] = tested on: MCF-7/Adr cells; experiment: Inhibition of growth of multidrug-resistant MCF-7/Adr cells, without or with reserpine; assay type: cell-based, human; details: for IC50: 4 days incubation, without reserpine; for Ratio (-reserpine / +reserpine): IC50 in MCF-7/Adr in the absence of reserpine over IC50 in its presence; for Ratio (MCF-7/Adr / MCF-7), resistance ratio: IC50 in MCF-7/Adr over IC50 in MCF-7; on MDR reversal by reserpine (Table III summary): key: +: potent effect; (+): weak effect; -: no effect
[2] = tested on: MCF-7/Adr cells; experiment: Flow cytometric analysis of R123 accumulation and efflux; assay type: cell-based, human; details: for Increase over control levels in R123 accumulation: 20 min together with R123; for Effect on R123 accumulation or efflux: 640 nM; on Effect on R123 efflux (Table III summary): key: +: potent effect; (+): weak effect; -: no effect
Text: (§1) In the present study these five compounds are compared as modifiers of P-gp-mediated MDR. […] The overall objective of the work was to explore the mechanisms of cytostasis and resistance reversal caused by kinase inhibitors in a MDR cell line, with the ultimate aim to assess the potential use of such compounds in cancer therapy. […] [3H]Vinblastine (11 or 21 Ci mmol -') was obtained from Amersham (Amersham, UK). […] Cell culture medium and serum were purchased from Gibco BRL (Paisley, UK). Stock solutions of drugs were prepared in dimethyl sulphoxide (DMSO) and stored at -20?C. […] Cultures of both cell types contained L-glutamine (2 mM), penicillin (100 IU ml-') and streptomy- cin (100 ug ml-1). Cells were subcultured when they were confluent. […] After a 4 h attachment period compounds at various concentrations were added. […] Cells were trypsinised and counted using a model ZM Coulter counter. Incubations were conducted in duplicate. Growth inhibition was expressed as percentage of cell number in drug-free control incubates. […] IC50 values were derived from three separate experiments each performed in duplicate. The resistance ratios shown in Table I are the ratios of IC50 in MCF-7/Adr over IC50 in MCF-7, or IC50 in MCF-7/Adr in the absence of reserpine over IC50 in its presence. Flow cytometric analysis of R123 accumulation and efflux Cells were maintained in medium without phenol red but with FCS (10%) and gentamicin (50 µg ml-'). […] Cells were detached by treatment with trypsin-EDTA, washed with ice-cold PBS and resuspended in PBS (1 ml), to which propidium iodide (10 Mg) was added. […] Single- and multi-parameter data of forward angle scatter, side scatter, R123 fluorescence and propidium iodide fluorescence were collected for 104 cells. Fluorescence was measured on a four-decade log scale. The data were analysed using Lysis 2 software. Only R123 fluorescence of viable, propidium iodide-excluding cells was analysed. [/II] Vinblastine accumndation ini cells MCF-7 and MCF-7jAdr cells were grown to confluency in 12-well plates. […] The experiment was started by addition of [3H]vinblastine (1 -2 nM) to the incubate. […] Cells were incubated at 37'C for I h, after which the medium was aspirated and replaced with scintillant (1 ml). […] For each membrane preparation 109 cells were homogenised in 40 ml ice-cold Tris buffer [Tris-HC1 50 mM, phenylmethylsulphonyl fluoride (PMSF) 0.1 mM, pH 7.4] to which 0.1 mM EDTA had been added. The homogenate was centrifuged at 3500 g for 10 min; the supernatant was recentrifuged at 40 000 g for 20 min, the resultant pellet was resuspended in Tris buffer (10 ml). […] Filters were washed twice with 5 ml of ice-cold Tris-HCI containing magnesium chloride (both 20 mM). Assays were performed in duplicate. Filters were dried and retained radioactivity was quantitated by liquid scintillation counting.

[3] = biological target: P-gp (Homo sapiens, UniProt P08183); experiment: Inhibition of binding of [3H]vinblastine to P-gp in MCF-7/Adr membranes
Text: as §1

[4] = tested on: PKC; details: cited from earlier work; for IC50 / PKC inhibition, potency (Table III summary): ref Courage et al., 1995; for IC50: read-out: IC50 for enzyme inhibition, PKC derived from the cytosol of MCF-7 cells; on PKC inhibition, potency (Table III summary): key: +: potent effect; (+): weak effect; -: no effect; on PKC inhibition, specificity (Table III summary): key: +: potent effect; (+): weak effect; -: no effect
[5] = tested on: MCF-7 cells; experiment: Inhibition of growth of MCF-7 wild-type cells (4 days, Coulter count); assay type: cell-based, human; details: for IC50: 4 days incubation, mean of three experiments, read-out: IC50 MCF-7 (concentration which caused inhibition of cell growth by 50%)
Text: as §1, with “were” for “were washed twice with 5 ml of ice-cold Tris-HCI containing magnesium chloride (both 20 mM). Assays were performed in duplicate. Filters were”

[6] = tested on: MCF-7/Adr cells; experiment: [3H]Vinblastine accumulation in MCF-7/Adr cells; assay type: cell-based, human; details: 300 nM, 1 h, 37 C; control cells 1280 d.p.m.
Text: as §1, with “were” for “were washed twice with 5 ml of ice-cold Tris-HCI containing magnesium chloride (both 20 mM). Assays were performed in duplicate. Filters were”

[7] = tested on: MCF-7/Adr cells; experiment: Sensitisation of MCF-7/Adr cells against doxorubicin (preliminary study); assay type: cell-based, human; details: unpublished preliminary study
[8] = Homo sapiens, NCI/ADR-RES, 96 h
[9] = read-out: Ki, inhibition of binding of [3H]vinblastine to P-gp, MCF-7/Adr membranes, 90 min, 23 C, mean, s.e.m.

Sequence of P-gp (P08183 whole entry): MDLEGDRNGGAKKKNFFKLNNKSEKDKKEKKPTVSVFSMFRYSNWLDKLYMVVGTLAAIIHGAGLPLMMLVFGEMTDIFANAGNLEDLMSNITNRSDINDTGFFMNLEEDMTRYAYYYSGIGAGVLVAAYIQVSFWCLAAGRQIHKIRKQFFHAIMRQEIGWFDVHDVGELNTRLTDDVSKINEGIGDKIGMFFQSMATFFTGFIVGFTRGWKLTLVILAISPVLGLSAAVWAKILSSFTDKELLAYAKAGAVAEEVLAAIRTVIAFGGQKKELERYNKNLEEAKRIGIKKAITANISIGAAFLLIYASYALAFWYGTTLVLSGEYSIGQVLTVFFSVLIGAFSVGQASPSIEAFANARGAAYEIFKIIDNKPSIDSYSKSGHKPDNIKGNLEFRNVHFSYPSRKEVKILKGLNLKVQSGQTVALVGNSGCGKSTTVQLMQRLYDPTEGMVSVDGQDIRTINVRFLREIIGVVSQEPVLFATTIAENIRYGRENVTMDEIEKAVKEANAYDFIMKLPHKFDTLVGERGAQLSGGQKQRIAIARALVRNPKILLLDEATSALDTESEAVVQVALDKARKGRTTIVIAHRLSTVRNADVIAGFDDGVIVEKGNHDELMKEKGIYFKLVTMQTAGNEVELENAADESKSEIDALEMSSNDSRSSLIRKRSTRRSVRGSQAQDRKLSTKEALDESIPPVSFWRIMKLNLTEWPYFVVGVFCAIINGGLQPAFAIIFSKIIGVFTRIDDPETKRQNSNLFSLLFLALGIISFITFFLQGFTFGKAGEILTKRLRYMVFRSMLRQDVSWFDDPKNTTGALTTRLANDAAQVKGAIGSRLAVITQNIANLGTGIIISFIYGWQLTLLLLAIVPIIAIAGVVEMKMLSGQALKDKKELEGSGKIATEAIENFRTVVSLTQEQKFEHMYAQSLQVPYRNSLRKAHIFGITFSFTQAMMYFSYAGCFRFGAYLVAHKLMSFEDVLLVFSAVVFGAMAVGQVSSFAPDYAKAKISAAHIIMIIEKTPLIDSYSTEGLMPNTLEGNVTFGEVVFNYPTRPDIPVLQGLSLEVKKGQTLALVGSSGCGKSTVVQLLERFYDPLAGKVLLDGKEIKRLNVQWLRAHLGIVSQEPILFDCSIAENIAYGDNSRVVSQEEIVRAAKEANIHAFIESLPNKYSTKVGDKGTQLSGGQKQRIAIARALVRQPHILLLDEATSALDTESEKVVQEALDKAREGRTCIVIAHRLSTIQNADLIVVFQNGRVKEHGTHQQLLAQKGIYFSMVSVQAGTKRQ

SMILES	Effect on R123 efflux (Table III summary) [2]	Inhibition of [3H]vinblastine binding (Table III summary) [3]	IC50 [5] [nM]	IC50 [1] [nM]	Ratio (-reserpine / +reserpine) [1]	Ratio (MCF-7/Adr / MCF-7), resistance ratio [1]	[3H]Vinblastine accumulation [6]	Ki [3, 9] [nM]	PKC inhibition, specificity (Table III summary) [4]	PKC inhibition, potency (Table III summary) [4]	other results
CN[C@@H]1C[C@H]2O[C@@](C)([C@@H]1OC)n1c3ccccc3c3c4c(c5c6ccccc6n2c5c31)C(=O)NC4 [staurosporine]	+	(+)	–	–	–	–	–	–	–	–	IC50 [1, 8]: 6.5 nM; Increase over control levels in R123 accumulation ([2]; 80 nM): 40%; Increase over control levels in R123 retention (efflux) ([2]; 20 min, 0.08 µM): 75%; Ki [3]: 145 nM; IC50 [4]: 16 nM
CN(C)CCCn1cc(C2=C(c3c[nH]c4ccccc34)C(=O)NC2=O)c2ccccc21 [GF 109203X]	–	–	7300	8800	1.5	1.2	1790 d.p.m.	780	+	+	Effect on R123 accumulation or efflux [2]: inactive; also recorded: did not alter
CN[C@@H]1C[C@H]2O[C@@](C)([C@@H]1OC)n1c3ccccc3c3c4c(c5c6ccccc6n2c5c31)C(=O)N[C@H]4O [UCN-01, 7-hydroxystaurosporine]	(+)	(+)	17.5	123	3.5	7.0	2110 d.p.m.	293	+	+	MDR reversal by reserpine (Table III summary) [1]: +; Resistance in MCF-7/Adr cells (Table III summary) [1]: +; Concentration with significant effect on R123 accumulation ([2]; tested 10-640 nM): 80 nM; Concentration with significant effect on dye efflux ([2]; tested 10-640 nM): 320 nM
COc1cccc2c1C(=O)c1c(O)c3c(c(O)c1C2=O)C[C@@](O)(C(=O)CO)C[C@@H]3O[C@H]1C[C@H](N)[C@H](O)[C@H](C)O1 [doxorubicin]	–	–	–	–	16	–	–	–	–	–	IC50 [1, 8]: 1600 nM
CO[C@@H]1[C@H](N(C)C(=O)c2ccccc2)C[C@H]2O[C@]1(C)n1c3ccccc3c3c4c(c5c6ccccc6n2c5c31)C(=O)NC4 [CGP 41251, 4'-N-benzoyl staurosporine]	+	+	–	–	–	–	3200 d.p.m.	–	–	–	Increase over control levels in R123 retention (efflux) ([2]; 80 nM, 20 min after loading with and removal of the dye): 150%; Increase over control levels in R123 accumulation ([2]; 80 nM): 47%; Ki [3]: 32 nM; Increase of sensitivity of cells towards doxorubicin (factor) ([7]; 80 nM): 2
COC(=O)[C@H]1[C@H]2C[C@@H]3c4[nH]c5cc(OC)ccc5c4CCN3C[C@H]2C[C@@H](OC(=O)c2cc(OC)c(OC)c(OC)c2)[C@@H]1OC [reserpine]	–	–	–	–	–	–	–	–	–	–	Effect on proliferation ([1]; reserpine 5 μM): did not interfere with proliferation; Increase of sensitivity towards doxorubicin ([1]; reserpine 5 μM, preliminary experiments): 14.3 fold
Cn1cc(C2=C(c3cn(CCCSC(=N)N)c4ccccc34)C(=O)NC2=O)c2ccccc21 [RO 31 8220]	–	(+)	897	11300	6.4	12.6	no effect	210	+	+	Effect of reserpine on sensitivity of wild-type MCF-7 cells ([5]; result not shown): did not affect; MDR reversal by reserpine (Table III summary) [1]: +; Resistance in MCF-7/Adr cells (Table III summary) [1]: +; Effect on R123 accumulation or efflux [2]: inactive; also recorded: did not alter; Effect on sensitivity of cells towards doxorubicin ([7]; 2 μM): no effect; IC50 [4]: 48 nM
